Test results reported in paper PMC9648375, “Identification of the first-in-class dual inhibitors of human DNA topoisomerase IIα and indoleamine-2,3-dioxygenase 1 (IDO 1) with strong anticancer properties” (Journal of Enzyme Inhibition and Medicinal Chemistry, 2022).
≈ marks a conversion by molar mass, not a printed value. Like-named read-outs stand apart in the source and are kept apart here.

Assays:
Type in all cases: cell-based
[1] = tested on: LS180 (colon cancer cell line); test: MTT assay; conditions: Homo sapiens, read-out: IC50, cytotoxicity
Procedure: (§1) Therefore, the whole set of compounds were tested by using MTT assay in order to check their overall cytotoxic effect. The growth of cells was monitored after 24 and 48 h of incubation with the increased concentrations (1–100 µg/ml) of the thiosemicarbazide derivatives. […] This confirms that the compounds tested combine different mechanisms of anticancer activity, and DNA topoisomerase II inhibition is only one of them.
(§2) Cytotoxicity of the synthesised compounds were examined against a panel of the cancer cell lines, MCF-7 (estrogen-dependent human breast cancer cells), MDA-MB-231 (oestrogen-independent human breast cancer cells), SCC- 25 (squamous cell carcinoma of the tongue), FaDu (squamous cell carcinoma of the pharynx), A- 549 (human lung carcinoma), AGS (human gastric adenocarcinoma), LS-180, HT-29 (colon cancer cell lines), T98G (glioblastoma cells), A375 (melanoma cells). Human embryonic kidney (HEK-293) cells and human normal skin fibroblasts (CRL-2072) were used as reference cell lines. The investigated cell lines were obtained from American Type Culture Collection (ATCC; Manassas, VA, USA). A375, MCF-7, MDA-MB-231, T98G cells were cultured in Dulbecco’s Modified Eagle’s Medium (DMEM) (Sigma Aldrich, St. Louis, MO, USA) supplemented with 10% heat inactivated foetal bovine serum (FBS), penicillin (100 U/mL), and streptomycin (100 μg/mL). SCC-25 cells were cultured in 1:1 mixture of Dulbecco’s modified Eagle’s medium and Ham’s F12 Medium (Sigma Aldrich, St. Louis, MO, USA) supplemented with 400 ng/ml hydrocortisone, 10% FBS, penicillin (100 U/mL), and streptomycin (100 μg/mL). A549 and AGS cells were maintained in F-12K Medium (Sigma Aldrich, St. Louis, MO, USA). LS-180 and FaDu cells were cultured in Eagle’s Minimum Essential Medium. HT-29 cells were maintained in McCoy’s 5 A Medium (Sigma Aldrich, St. Louis, MO, USA) supplemented with 10%FBS, penicillin (100 U/mL), and streptomycin (100 μg/mL). All the cells were maintained at 37 °C in a humidified atmosphere of 5% CO2.
(§3) The synthesised compounds were dissolved in DMSO in order to obtain stock solutions. At the day of the experiment, the suspension of cells (1 × 10^5 cells/mL) in the respective medium was applied to a 96-well plate at 100 μL per well. […] The control cells were cultured only with a medium containing 2% FBS. Cytotoxicity of DMSO was also checked at concentrations present in respective dilutions of stock solution. After 24 h (or 48 h) of incubation, 15 μL of MTT working solution (5 mg/mL in PBS) was added to each well. The plate was incubated for 3 h. Subsequently, 100 μL of 10% SDS solution was added to each well. Cells were incubated overnight at 37 °C to dissolve the precipitated formazan crystals. The concentration of the dissolved formazan was evaluated by measuring the absorbance at λ = 570 nm, using a microplate reader (Epoch, BioTek Instruments, Inc., Winooski, VT, USA). At least two independent experiments were performed in triplicates. The results of the MTT assay were expressed as mean ± SD. […] IC50 values of the investigated derivatives and standards were calculated using the IC50 calculator.[23]

[2] = tested on: A549 (human lung carcinoma); test: MTT assay; conditions: read-out: IC50, cytotoxicity
Procedure: as §1, §2, §3

MTT assay = conditions: human, HEK-293 cells (normal reference cell line), HEK-293 (normal cells), read-out: IC50, cytotoxicity
Procedure: as §1, §2, §3

[3] = tested on: T98G (glioblastoma cells); test: MTT assay; conditions: Homo sapiens, read-out: IC50, cytotoxicity
Procedure: as §1, §2, §3

[4] = tested on: MDA-MB-231 (estrogen-independent human breast cancer cells); test: MTT assay; conditions: MDA-MB-231, MTT, read-out: IC50, cytotoxicity
Procedure: as §1, §2, §3

[5] = tested on: FaDu (squamous cell carcinoma of the pharynx); test: MTT assay; conditions: Homo sapiens, read-out: IC50, cytotoxicity
Procedure: as §1, §2, §3

[6] = tested on: AGS (human gastric adenocarcinoma); test: MTT assay; conditions: read-out: IC50, cytotoxicity
Procedure: as §1, §2, §3

[7] = tested on: MCF-7 (estrogen-dependent human breast cancer cells); test: MTT assay; conditions: MCF7, MCF-7, MTT, read-out: IC50, cytotoxicity
Procedure: as §1, §2, §3

[8] = tested on: HT-29 (colon cancer cell line); test: MTT assay; conditions: Homo sapiens, HT-29, MTT, read-out: IC50, cytotoxicity
Procedure: as §1, §2, §3

A375 (melanoma cells) = test: MTT assay; conditions: Homo sapiens, read-out: IC50, cytotoxicity
Procedure: as §1, §2, §3

[9] = tested on: SCC-25 (squamous cell carcinoma of the tongue); test: MTT assay; conditions: Homo sapiens, SCC-25, MTT, read-out: IC50, cytotoxicity
Procedure: as §1, §2, §3

| Compound | IC50 ([1]; 24h) | IC50 ([1]; 48 h) | IC50 ([2]; 24h) | IC50 ([2]; 48h) | IC50 at 24 h (MTT assay) | IC50 at 48 h (MTT assay) | IC50 ([3]; 24h) | IC50 ([3]; 48h) | IC50 ([4]; 24h) | IC50 ([4]; 48h) | IC50 ([5]; 24h) | IC50 ([5]; 48 h) | IC50 ([6]; 24h) | IC50 ([6]; 48 h) | IC50 ([7]; 24h) | IC50 ([7]; 48h) | IC50 ([8]; 24h) | IC50 ([8]; 48 h) | IC50 (A375 (melanoma cells); A-375, 24h) | IC50 (A375 (melanoma cells); A-375, 48 h) | further results |
| --- | --- | --- | --- | --- | --- | --- | --- | --- | --- | --- | --- | --- | --- | --- | --- | --- | --- | --- | --- | --- | --- |
| CC(C)c1cccc(C(C)C)c1NC(=S)NNC(=O)Cc1cccc2ccccc12 [Compound 1, 4-(2,6-Diisopropylphenyl)-1-[(naphth-1-yl)acetyl]thiosemicarbazide] | 4.57 µg/mL (≈ 10.9 µM) | 2.54 µg/mL (≈ 6.05 µM) | 3.87 µg/mL (≈ 9.22 µM) | 2.27 µg/mL (≈ 5.41 µM) | 17.6 µg/mL (≈ 41.9 µM) | 9.61 µg/mL (≈ 22.9 µM) | 6.98 µg/mL (≈ 16.6 µM) | 2.27 µg/mL (≈ 5.41 µM) | 9.21 µg/mL (≈ 21.9 µM) | 8.04 µg/mL (≈ 19.2 µM) | 7.26 µg/mL (≈ 17.3 µM) | 2.01 µg/mL (≈ 4.79 µM) | 5.92 µg/mL (≈ 14.1 µM) | 2.69 µg/mL (≈ 6.41 µM) | 9.82 µg/mL (≈ 23.4 µM) | 8.45 µg/mL (≈ 20.1 µM) | 8.96 µg/mL (≈ 21.4 µM) | 5.33 µg/mL (≈ 12.7 µM) | 4.57 µg/mL (≈ 10.9 µM) | 1.82 µg/mL (≈ 4.34 µM) | IC50 ([9]; 24h): 7.06 µg/mL (≈ 16.8 µM); IC50 ([9]; 48 h): 5.22 µg/mL (≈ 12.4 µM) |
| COc1cc([C@@H]2c3cc4c(cc3[C@@H](O[C@@H]3O[C@@H]5CO[C@@H](C)O[C@H]5[C@H](O)[C@H]3O)[C@H]3COC(=O)[C@H]23)OCO4)cc(OC)c1O [Etoposide, etoposide, reference compound] | > 100 µg/mL | 11.7 µg/mL (≈ 19.9 µM) | > 100 µg/mL | 15.6 µg/mL (≈ 26.5 µM) | 37.9 µg/mL (≈ 64.3 µM) | 29.1 µg/mL (≈ 49.5 µM) | > 100 µg/mL | 17.1 µg/mL (≈ 29 µM) | > 100 µg/mL | 40.3 µg/mL (≈ 68.5 µM) | 12.5 µg/mL (≈ 21.3 µM) | 10.7 µg/mL (≈ 18.2 µM) | 50.8 µg/mL (≈ 86.3 µM) | 29.8 µg/mL (≈ 50.6 µM) | > 100 µg/mL | 6.15 µg/mL (≈ 10.4 µM) | 94.5 µg/mL (≈ 161 µM) | 11.3 µg/mL (≈ 19.2 µM) | 10.2 µg/mL (≈ 17.3 µM) | 6.48 µg/mL (≈ 11 µM) | IC50 ([9]; 24h): 59.1 µg/mL (≈ 100 µM); IC50 ([9]; 48 h): 23.7 µg/mL (≈ 40.3 µM) |
| O=C(NNC(=S)Nc1ccc(N=Nc2ccccc2)cc1)c1ccccc1[N+](=O)[O-] [Compound 3, 4-(4-Phenylazophenyl)-1-(2-nitrobenzoyl)thiosemicarbazide] | 3.12 µg/mL (≈ 7.42 µM) | 2.7 µg/mL (≈ 6.42 µM) | 5.37 µg/mL (≈ 12.8 µM) | 5.13 µg/mL (≈ 12.2 µM) | 27.5 µg/mL (≈ 65.5 µM) | 9.19 µg/mL (≈ 21.9 µM) | 3.35 µg/mL (≈ 7.97 µM) | 2.94 µg/mL (≈ 6.99 µM) | 10.5 µg/mL (≈ 24.9 µM) | 6.02 µg/mL (≈ 14.3 µM) | 2.49 µg/mL (≈ 5.92 µM) | 2.18 µg/mL (≈ 5.18 µM) | 5.54 µg/mL (≈ 13.2 µM) | 4.31 µg/mL (≈ 10.3 µM) | 7.67 µg/mL (≈ 18.2 µM) | 5.48 µg/mL (≈ 13 µM) | 7.37 µg/mL (≈ 17.5 µM) | 3.77 µg/mL (≈ 8.97 µM) | 1.8 µg/mL (≈ 4.28 µM) | 0.56 µg/mL (≈ 1.33 µM) | IC50 ([9]; 24h): 4.76 µg/mL (≈ 11.3 µM); IC50 ([9]; 48 h): 3.87 µg/mL (≈ 9.2 µM) |
| O=C(Cc1cccc2ccccc12)NNC(=S)Nc1ccc(N=Nc2ccccc2)cc1 [Compound 2, 4-(4-Phenylazophenyl)-1-[(naphth-1-yl)acetyl]thiosemicarbazide] | 2.87 µg/mL (≈ 6.53 µM) | 2.24 µg/mL (≈ 5.1 µM) | 5.84 µg/mL (≈ 13.3 µM) | 5.78 µg/mL (≈ 13.1 µM) | 15.6 µg/mL (≈ 35.5 µM) | 10 µg/mL (≈ 22.8 µM) | 5.53 µg/mL (≈ 12.6 µM) | 4.85 µg/mL (≈ 11 µM) | 7.64 µg/mL (≈ 17.4 µM) | 7.07 µg/mL (≈ 16.1 µM) | 2.75 µg/mL (≈ 6.26 µM) | 2.54 µg/mL (≈ 5.78 µM) | 5.32 µg/mL (≈ 12.1 µM) | 2.96 µg/mL (≈ 6.73 µM) | 9.18 µg/mL (≈ 20.9 µM) | 8.85 µg/mL (≈ 20.1 µM) | 8.96 µg/mL (≈ 20.4 µM) | 5.33 µg/mL (≈ 12.1 µM) | 8.96 µg/mL (≈ 20.4 µM) | 2.47 µg/mL (≈ 5.62 µM) | IC50 ([9]; 24h): 4.73 µg/mL (≈ 10.8 µM); IC50 ([9]; 48 h): 3.12 µg/mL (≈ 7.1 µM) |
